The target in data set [1] is T1, recombinant human 11β-HSD1 (Homo sapiens, UniProt P28845).
T1 construct: expressed in transfected cells
As to the kind of experiment: 11β-HSD1 enzyme activity in cell lysates (cortisone to cortisol, radiolabeled tracer, TLC). It is filed as biochemical. The following applies: for 11β-HSD1 Residual activity, % of control at 100 nM: 100 nM compound; for 11β-HSD1 Residual activity, % of control at 100 nM / 11β-HSD1 Residual activity, % of control at 1 μM: lysates of HEK-293 cells, 200 nM cortisone, mean of three experiments; for 11β-HSD1 Residual activity, % of control at 1 μM: 1 μM compound; for activity towards 11β-HSD1, effect of substituent (in words): cell lysates, SAR comparison within the series. On the procedure:
(§1) Human embryonic kidney (HEK-293) cells either stably expressing human 11β-HSD1 and H6PDH (HHH7 clone, [38]) or 11β-HSD2 (AT8 clone, [39]), or transiently expressing human 17β-HSD1 or 17β-HSD2, were cultivated in Dulbecco’s modified Eagle medium (DMEM) containing 4.5 g/L glucose, 10% fetal bovine serum, 100 U/mL penicillin, 0.1 mg/mL streptomycin, 1 × MEM nonessential amino acids, and 10 mM HEPES buffer, pH 7.4. Cells were washed with phosphate-buffered saline (PBS), centrifuged for 4 min at 150 × g, and the cell pellets were snap frozen on dry ice and stored at −80°C until further use.
(§2) Cell lysates were resuspended in TS2 buffer (100 mM NaCl, 1 mM EGTA, 1 mM EDTA, 1 mM MgCl2, 250 mM sucrose, 20 mM Tris-HCl, pH 7.4), followed by sonication at 4°C using a Hielscher UP50H ultrasonic processor (0.3 cycle, 20 amplitude %, 20 impulses; Hielscher Ultrasonics GmbH, Teltow Germany). Cell lysates, reaction mixture, and either vehicle (DMSO) or inhibitor were incubated for 10 min at 37°C in a final volume of 22.2 μL. The solvent concentration was 0.1%. […] 11β-HSD2 activity was measured in the presence of 50 nM cortisol and 500 μM NAD^+. An amount of 50 nCi of radiolabeled tracer substrate was included in the experiments. […] The bands of the corresponding steroids were excised, followed by scintillation counting and calculation of the amount of substrate conversion. Data were obtained from at least three independent measurements. Glycyrrhetinic acid (CTRL 1) was used as positive control for 11β-HSD1 and 11β-HSD2 inhibition, apigenin (CTRL 2) for 17β-HSD1, and compound 22 from Vuorinen et al. [40](CTRL 3) for 17β-HSD2 inhibition.

The test system of data set [2] is T2, recombinant human 11β-HSD2.
T2 construct: expressed in transfected cells
As to the kind of experiment: 11β-HSD2 enzyme activity in cell lysates (cortisol to cortisone). It is filed as biochemical. To be noted: 1 μM compound; lysates of HEK-293 cells; 50 nM cortisol. On the procedure: as §1, §2

Another data set concerns T3, human 17β-HSD1.
T3 construct: expressed in transfected cells; host or cells: HEK-293 (transient)
As to the kind of experiment: 17β-HSD1 enzyme activity in cell lysates (estrone to estradiol). To be noted: 1 μM, 200 nM estrone. In kind it is biochemical. As to the method:
as §1, §2

The test system of another data set is T4, human 17β-HSD2.
T4 construct: expressed in transfected cells; host or cells: HEK-293 (transient)
The experiment in a line: 17β-HSD2 enzyme activity in cell lysates (estradiol to estrone). In kind it is biochemical. To be noted: 1 μM, 200 nM estradiol. On the procedure:
as §1, §2

A further data set relates to T5, human 11β-HSD1.
T5 construct: expressed in transfected cells
As to the kind of experiment: 11β-HSD1 activity assay in intact HEK-293 cells co-expressing 11β-HSD1 and H6PDH. It is filed as cell-based. The following applies: 100 nM and 1 μM compound; intact HHH7 cells; 200 nM cortisone; 30 min. As to the method:
HEK-293 cells co-expressing 11β-HSD1 and H6PDH were seeded in poly-L-lysine coated 96 well-plates (30’000 cells/well) and cultivated in DMEM. At 24 h post-seeding, the cells were washed with charcoal-treated serum-free DMEM (cDMEM) and incubated for 3 h in 100 μL cDMEM. Then, the medium was aspirated and replaced by 30 μL cDMEM. […] The reactions were terminated after 30 min of incubation, followed by analysis of substrate conversion as described above. Data were obtained from at least three independent measurements.

A further data set addresses T6, endogenous 11β-HSD1 (Homo sapiens, UniProt P28845).
T6 construct: intact primary human keratinocytes expressing endogenous 11β-HSD1; host or cells: primary human epidermal keratinocytes
As to the kind of experiment: 11β-HSD1-dependent cortisol formation in intact primary human keratinocytes. It is filed as cell-based. As to the method:
Human epidermal keratinocytes obtained from CELLnTEC advanced Cell Systems (Berne, Switzerland) were maintained in CnT-Prime medium (http://cellntec.com/products/cnt-pr/#datasheet) at 37°C. Cells were subcultivated before reaching confluence. After reaching 90% of confluence, the keratinocytes were washed twice with PBS prior to change to cortisol-free CnT-Prime medium (custom-made by CELLnTEC). […] Compound CAS 1009373-58-3 (CTRL 4, Merck Millipore, Darmstadt, Germany) was used as positive control. After 24 h cell culture supernatants were collected and the amount of cortisol produced was measured on a Mulstiskan Ascent plate reader (MTX Lab Systems, Bradenton, FL) using the Cortisol Parameter Assay Kit (R&D Systems, Minneapolis, MN) following the instructions by the manufacturer. Cell viability was assessed using PrestoBlue® Cell Viability Reagent (Invitrogen, Carlsbad, CA) according to the manufacturer’s instructions.

The next data set relates to human skin biopsies. As to the kind of experiment: Dermal total collagen content in ex vivo human skin biopsies (Picrosirius Red). The following applies: 10 nM, 100 nM and 1 μM cortisone; p<0.01. On the procedure:
Ex vivo skin experiments were performed as contract research by Cutech Biotechnology following the Helsinki declaration and who obtained permission as well as informed consent from the patient (Padova, Italy). Human skin from abdominal plastic surgery of a donor was used. Skin samples were cut in pieces of approximately 8 × 3 mm (diameter × thickness) and cultured in an air-liquid interface in a perforated ring of stainless steel in contact with culture medium (modified Williams’ E medium, Sigma Aldrich) up to day 6. The culture medium was renewed on day 0 and day 3. The test compounds were applied topically and renewed daily. The application was performed as follows: skin biopsies were gently cleaned with a cotton pad and 4 μL of 10 μM or 100 μM test compound were applied on top of each piece and covered with a 6 mm (diameter) delivery membrane (CoTran 9728 Controlled Caliper Ethylene Vinyl Acetate Membrane, 3M, St. Paul, MN, USA).
Skin viability was assessed in two skin biopsies after 6 days of treatment using methylthiazolyldiphenyl‐tetrazolium bromide (MTT, Sigma Aldrich) staining. Total dermal collagen in skin sections was semi-quantitatively evaluated by Picrosirius Red histochemical staining (using Picric Acid, Fast Green FCF and Direct Red from Sigma Aldrich) that dyes collagen fibers in purple-red. […] The evaluation was performed by estimating both color intensity and distribution using IMAGE J (NIH) analysis software, allowing to obtain a semi-quantitative evaluation of dermal collagen (collagen score). Two slides of each skin sample were processed by image acquisition and related analysis (i.e. 12 images for each treatment).

pIC50: −log10 of the molar value.

T1 sequence (P28845 whole entry): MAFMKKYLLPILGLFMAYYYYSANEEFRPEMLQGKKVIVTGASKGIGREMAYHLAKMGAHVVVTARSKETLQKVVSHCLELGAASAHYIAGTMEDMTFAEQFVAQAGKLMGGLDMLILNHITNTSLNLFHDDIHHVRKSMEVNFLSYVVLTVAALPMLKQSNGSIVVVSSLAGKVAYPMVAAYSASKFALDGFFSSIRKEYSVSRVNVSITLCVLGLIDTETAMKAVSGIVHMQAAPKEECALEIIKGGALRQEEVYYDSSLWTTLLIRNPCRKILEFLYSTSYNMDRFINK
T6 sequence (P28845 whole entry): as above

The term pIC50 denotes −log10 of the IC50, conventionally taken in molar units. A word on the melting point: it is the temperature, or range, at which the solid turns liquid. `Cc1ccc(-c2cccc(C(=O)N3CCCCCC3)c2)cc1` [1e, Azepan-1-yl(4’-methyl-[1,1’-biphenyl]-3-yl)methanone] yielded a melting point of 109 to 111 °C. In data set [1], the pIC50 is 7.43 and the “11β-HSD1 Residual activity, % of control at 100 nM” value is 17 % of control. Also, the “11β-HSD2 Residual activity, % of control at 1 μM” value (“11β-HSD2 Residual activity, %” below) in data set [2] is > 90 % of control.
Regarding `Cc1ccc(-c2cccc(C(=O)N3CCC[C@H]3C(N)=O)c2)cc1F` [3f, (S)-1-(3’-fluoro-4’-methyl-[1,1’-biphenyl]-3-carbonyl)-pyrrolidine-2-carboxamide], the melting point was in the range of 73 to 75 °C. In data set [1], the “11β-HSD1 Residual activity, % of control at 100 nM” value was > 90 % of control; the “11β-HSD1 Residual activity, % of control at 1 μM” value is recorded as > 90 % of control; the “activity towards 11β-HSD1, effect of substituent (in words)” value (shortened to “activity towards 11β-HSD1, effect”) is “abolished the activity”. For the same compound, the “11β-HSD2 Residual activity, %” value in data set [2] is listed as > 90 % of control.
Consider `O=C(c1cccc(-c2ccc(Cl)cc2)c1)N1CCCCCC1` [5e, Azepan-1-yl(4’-chloro-[1,1’-biphenyl]-3-yl)methanone], for which the melting point lay in the range of 116 to 117 °C. Further, in data set [1], the “11β-HSD1 Residual activity, % of control at 100 nM” value is 50 % of control and the “11β-HSD1 Residual activity, % of control at 1 μM” value is on record as 2 % of control. For the same compound, the “11β-HSD2 Residual activity, %” value in data set [2] was > 90 % of control.
Consider `CC1CCN(C(=O)c2cccc(-c3ccc(O)cc3)c2)CC1` [7b, (4’-Hydroxy-[1,1’-biphenyl]-3-yl)(4-methylpiperidin-1-yl)methanone], for which, in data set [1], the negative logarithm of the IC50 (pIC50) is 7.39; the “11β-HSD1 Residual activity, % of control at 100 nM” value is reported as 38 % of control; the “11β-HSD1 Residual activity, % of control at 1 μM” value is listed as 5 % of control. Further, in data set [2], the “11β-HSD2 Residual activity, %” value is > 90 % of control. The “inhibition of 17β-HSD1 (in words)” value with human 17β-HSD1 is listed as “selective”. The “inhibition of 17β-HSD2 (in words)” value in the data set on human 17β-HSD2 is given as “selective”. The “inhibition of 11β-HSD1 in intact cells (in words)” value with human 11β-HSD1 was “almost completely inhibited”. Moreover, the “inhibition of cortisol formation (in words)” value against endogenous 11β-HSD1 (1 μM compound, primary human keratinocytes, 1 μM cortisone, 24 h) is recorded as “almost completely inhibited”. Moreover, the pIC50 on endogenous 11β-HSD1 (read-out: estimated IC50 of cortisol formation) is no less than 7.00.
The compound `O=C(c1cccc(-c2ccc(O)cc2)c1)N1CCCCCC1` [7e, Azepan-1-yl(4’-hydroxy-[1,1’-biphenyl]-3-yl)methanone] displayed a melting point of 184 to 185 °C. In data set [1], the “11β-HSD1 Residual activity, % of control at 100 nM” value is given as 28 % of control. Moreover, the “11β-HSD2 Residual activity, %” value in data set [2] is on record as > 90 % of control.
`CC1CCN(C(=O)c2cccc(-c3cccc(O)c3)c2)CC1` [8b, (3’-Hydroxy-[1,1’-biphenyl]-3-yl)(4-methylpiperidin-1-yl)methanone]: in data set [1], the “11β-HSD1 Residual activity, % of control at 100 nM” value is listed as 70 % of control; the “11β-HSD1 Residual activity, % of control at 1 μM” value is given as 8 % of control; the “activity towards 11β-HSD1, effect” value is “lower activity”. Also, the “11β-HSD2 Residual activity, %” value in data set [2] is recorded as > 90 % of control.
Regarding `CC1CCN(C(=O)c2cccc(-c3ccc(C(N)=O)cc3)c2)CC1` [9b, 3’-(4-methylpiperidine-1-carbonyl)-[1,1’-biphenyl]-4-carboxamide], the melting point is 188 to 190 °C. In addition, in data set [1], the “11β-HSD1 Residual activity, % of control at 100 nM” value was 65 % of control; the “11β-HSD1 Residual activity, % of control at 1 μM” value was 19 % of control; the “activity towards 11β-HSD1, effect” value is recorded as “substantial loss of activity”. Besides, the “11β-HSD2 Residual activity, %” value in data set [2] is > 90 % of control.
`CC1CCN(C(=O)c2cccc(-c3cccc(C(N)=O)c3)c2)CC1` [10b, 3’-(4-methylpiperidine-1-carbonyl)-[1,1’-biphenyl]-3-carboxamide]: in data set [1], the “11β-HSD1 Residual activity, % of control at 100 nM” value is reported as 89 % of control; the “11β-HSD1 Residual activity, % of control at 1 μM” value was 34 % of control; the “activity towards 11β-HSD1, effect” value was “substantial loss of activity”. For the same compound, in data set [2], the “11β-HSD2 Residual activity, %” value is on record as > 90 % of control.
`Cc1ccc(-c2cccc(C(=O)N3CCCCCC3)c2)cc1C` [11e, Azepan-1-yl(3’,4’-dimethyl-[1,1’-biphenyl]-3-yl)methanone]: in data set [1], the “11β-HSD1 Residual activity, % of control at 100 nM” value is 69 % of control and the “activity towards 11β-HSD1, effect” value was “lower activity”. The “11β-HSD2 Residual activity, %” value in data set [2] was > 90 % of control.
For `C[C@]12CCC(=O)C=C1CC[C@@H]1[C@@H]2C(=O)C[C@@]2(C)[C@H]1CC[C@]2(O)C(=O)CO` [cortisone, reference compound], the “decrease in dermal collagen” value in the data set with human skin biopsies was 20–26%.

Source of the values: article PMC5289826 (PLoS ONE, 2017).
